Source: ChEMBL document CHEMBL1147818, “1,1'-Xylyl bis-1,4,8,11-tetraaza cyclotetradecane: a new potential copper chelator agent for neuroprotection in Alzheimer's disease. Its comparative effects with clioquinol on rat brain copper distribution” (Bioorg Med Chem Lett, 2006)

Tests used:
[1] = test system: Rattus norvegicus; test: Distribution of copper per 100 ml of Wistar rat blood at 5 mg/kg, iv after 1 hr; assay type: ADME, organism-based; design: dose 5 mg/kg, route intravenous; conditions: in vivo
[2] = test system: Rattus norvegicus; test: Decrease in copper concentration in Wistar rat CSF at 5 mg/kg, iv after 1 hr relative to control; assay type: functional; design: scale not given: the % may be the effect or the level left

Row | Structure (SMILES) | Ct [1] | Activity [2]
1 | CC(C)(S)[C@@H](N)C(=O)O [PENICILLAMINE] | 135 µg | 
2 | c1cc(CN2CCCNCCNCCCNCC2)ccc1CN1CCCNCCNCCCNCC1 [PLERIXAFOR] | 142 µg | 70%
3 | Oc1c(I)cc(Cl)c2cccnc12 [CLIOQUINOL] | 126 µg | 70%
